test system: Dd2 strain of P. falciparum; assay: Activity against the Dd2 strain of P. falciparum (SYBR Green I, 72-h incubation); type: cell-based; conditions: Plasmodium falciparum, DD2, 72 h, read-out: EC^50 Dd2
How it was run: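 SYBR Green I signal (ex 485, em 530 nm) measured growth, read after 24 h dark staining in saponin/Triton lysis buffer. Before that, compound-exposed Dd2 cultures (1% parasitemia, 1.0% hematocrit, 0.125% DMSO) grew 72 h at 37° C in low-oxygen gas. Background control: 20 μM mefloquine.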

Compound	EC50
COc1ccc2c3c([nH]c2c1)[C@H](CO)N(CCCc1ccccc1)CC31CCN(C(=O)Nc2ccccc2F)CC1 [Compound 71, (R)-N-(2-fluorophenyl)-1′-(hydroxymethyl)-7′-methoxy-2′-(3-phenylpropy1)-1′,2′,3′,9′-tetrahydrospiro[piperidine-4,4′-pyrido[3,4-b]indole]-1-carboxamide]	7240 nM
COc1ccc2c3c(n(C)c2c1)[C@@H](CO)N(C(=O)Nc1ccc(F)cc1)CC31CCN(Cc2cccnc2)CC1 [Compound 106, (S)-N-(4-fluorophenyl)-1′-(hydroxymethyl)-7′-methoxy-9′-methyl-1-(pyridin-3-ylmethyl)-3′,9′-dihydrospiro [piperidine-4,4′-pyrido[3,4-b]indole]-2′(1′H)-carboxamide]	727 nM
COc1ccc2c3c([nH]c2c1)[C@H](CO[Si](C)(C)C(C)(C)C)N(C(C)=O)CC31CCN(C(=O)OC(C)(C)C)CC1 [Compound 24, (R)-tert-butyl 2′-acety1-1′-(((tert-butyldimethylsilyl)oxy)methyl)-7′-methoxy-1′,2′,3′,9′-tetrahydrospiro [piperidine-4,4′-pyrido[3,4-b]indole]-1-carboxylate]	1240 nM
COc1ccc2c3c(n(C)c2c1)[C@H](CO)N(Cc1ccc(Cl)cc1)CC31CCN(CC2CC2)CC1 [Compound 135, (R)-(2′-(4-chlorobenzyl)-1-(cyclopropylmethyl)-7′-methoxy-9′-methyl-1′,2′,3′,9′-tetrahydrospiro [piperidine-4,4′-pyrido[3,4-b]indol]-1′-yl) methanol]	2230 nM
COc1ccc2c3c(n(C)c2c1)[C@H](CO)N(C(C)=O)CC31CCN(C(=O)Nc2ccccc2F)CC1 [Compound 5, (R)-2′-acetyl-N-(2-fluorophenyl)-1′-(hydroxymethyl)-7′-methoxy-9′-methyl-1′,2′,3′,9′-tetrahydrospiro [piperidine-4,4′-pyrido[3,4-b]indole]-1-carboxamide]	6480 nM
COc1ccc2c3c([nH]c2c1)[C@H](CO)N(Cc1ccccc1)CC31CCN(C(=O)Nc2ccccc2F)CC1 [Compound 143, (R)-2′-benzyl-N-(2-fluorophenyl)-1′-(hydroxymethyl)-7′-methoxy-1′,2′,3′,9′-tetrahydrospiro [piperidine-4,4′-pyrido[3,4-b]indole]-1-carboxamide]	5000 nM
COc1ccc2c3c([nH]c2c1)[C@H](CO)N(C(C)=O)CC31CCN(C(=O)Nc2cccnc2)CC1 [Compound 52, (R)-2′-acetyl-1′-(hydroxymethyl)-7′-methoxy-N-(pyridin-3-yl)-1′,2′,3′,9′-tetrahydrospiro[piperidine-4,4′-pyrido[3,4-b]indole]-1-carboxamide]	1450 to 1980 nM
CCN1CC2(CCN(C(=O)Nc3ccccc3F)CC2)c2c([nH]c3cc(OC)ccc23)[C@@H]1CO [Compound 60, (R)-2′-ethyl-N-(2-fluorophenyl)-1′-(hydroxymethyl)-7′-methoxy-1′,2′,3′,9′-tetrahydrospiro [piperidine-4,4′-pyrido[3,4-b]indole]-1-carboxamide]	4610 to 5790 nM
COc1ccc2c3c(n(C)c2c1)[C@@H](CO)N(C(=O)c1ccc(F)cc1)CC31CN(C(=O)Nc2ccc(F)cc2)C1 [Compound 108, (S)-2′-(4-fluorobenzoyl)-N-(4-fluorophenyl)-1′-(hydroxymethyl)-7′-methoxy-9′-methyl-1′,2′,3′,9′-tetrahydrospiro[azetidine-3,4′-pyrido[3,4-b]indole]-1-carboxamide]	1220 nM
COc1ccc2c3c(n(C)c2c1)[C@@H](CO)N(C(=O)Nc1ccc(F)cc1)CC31CCN(Cc2ccccn2)CC1 [Compound 101, (S)-N-(4-fluorophenyl)-1′-(hydroxymethyl)-7′-methoxy-9′-methyl-1-(pyridin-2-ylmethyl)-3′,9′-dihydrospiro [piperidine-4,4′-pyrido[3,4-b]indole]-2′(1′H)-carboxamide]	2050 nM
CCS(=O)(=O)N1CC2(CCN(C(=O)OC(C)(C)C)CC2)c2c([nH]c3cc(OC)ccc23)[C@@H]1CO [Compound 148, (R)-tert-butyl 2′-(ethylsulfonyl)-1′-(hydroxymethyl)-7′-methoxy-1′,2′,3′,9′-tetrahydrospiro [piperidine-4,4′-pyrido[3,4-b]indole]-1-carboxylate]	8530 nM
COc1ccc2c3c([nH]c2c1)[C@H](CO)N(C(C)=O)CC31CCN(Cc2ccccc2F)CC1 [Compound 21, (R)-1-(1-(2-fluorobenzyl)-1′-(hydroxymethyl)-7′-methoxyspiro[piperidine-4,4′-pyrido[3,4-b]indol]-2′(1′H,3′H,9′H)-yl)ethanone]	4010 nM
CCCC(=O)N1CC2(CCN(C(=O)Nc3ccccc3F)CC2)c2c([nH]c3cc(OC)ccc23)[C@@H]1CO [Compound 36, (R)-2′-butyryl-N-(2-fluorophenyl)-1′-(hydroxymethyl)-7′-methoxy-1′,2′,3′,9′-tetrahydrospiro[piperidine-4,4′-pyrido[3,4-b]indole]-1-carboxamide]	423 nM
CCC(=O)N1CCC2(CC1)CN(Cc1cc(F)ccc1F)[C@H](CO)c1[nH]c3cc(OC)ccc3c12 [Compound 118, (S)-1-(2′-(2,5-difluorobenzyl)-1′-(hydroxymethyl)-7′-methoxy-1′,2′,3′,9′-tetrahydrospiro [piperidine-4,4′-pyrido[3,4-b]indol]-1-yl) propan-1-one]	1960 nM
COc1ccc2c3c([nH]c2c1)[C@H](CO)N(C(C)=O)CC31CCN(C(=O)Nc2ccc(F)cc2)CC1 [Compound 8, (R)-2′-acetyl-N-(4-fluorophenyl)-1′-(hydroxymethyl)-7′ -methoxy-1′,2′,3′,9′-tetrahydrospiro[piperidine-4,4′-pyrido[3,4-b]indole]-1-carboxamide]	1770 nM
COc1ccc2c3c([nH]c2c1)[C@H](CO)N(C(=O)Nc1ccc(F)cc1)CC31CCN(S(=O)(=O)c2ccccc2)CC1 [Compound 80, (R)-N-(4-fluorophenyl)-1′-(hydroxymethyl)-7′-methoxy-1-(phenylsulfonyl)-3′,9′-dihydrospiro[piperidine-4,4′-pyrido[3,4-b]indole]-2′(1′H)-carboxamide]	1300 nM
COc1ccc2c3c([nH]c2c1)[C@H](CO)N(C(C)=O)CC31CCN(c2nc3ccccc3[nH]2)CC1 [Compound 136, (R)-1-(1-(1H-benzo[d]imidazol-2-yl)-1′-(hydroxymethyl)-7′-methoxyspiro[piperidine-4,4′-pyrido[3,4-b]indol]-2′(1′H,3′H,9′H)-yl) ethanone]	2470 nM
COc1ccc2c3c([nH]c2c1)[C@H](CO[Si](C)(C)C(C)(C)C)NCC31CCN(C(=O)Nc2ccccc2F)CC1 [Compound 40, (R)-1′-(((tert-butyldimethylsilyl)oxy)methyl)-N-(2-fluorophenyl)-7′-methoxy-1′,2′,3′,9′-tetrahydrospiro[piperidine-4,4′-pyrido[3,4-b]indole]-1-carboxamide]	1220 nM
COc1ccc2c3c([nH]c2c1)[C@H](CO)N(C(=O)C1CC1)CC31CCN(C(=O)Nc2ccccc2F)CC1 [Compound 33, (R)-2′-(cyclopropanecarbonyl)-N-(2-fluorophenyl)-1′-(hydroxymethyl)-7′-methoxy-1′,2′,3′,9′-tetrahydrospiro[piperidine-4,4′-pyrido[3,4-b]indole]-1-carboxamide]	2980 nM
COc1ccc2c3c(n(C)c2c1)[C@@H](CO)N(C(=O)CN(C)C)CC31CCN(Cc2cccnc2)CC1 [Compound 90, (S)-2-(dimethylamino)-1-(1′-(hydroxymethyl)-7′-methoxy-9′-methyl-1-(pyridin-3-ylmethyl)spiro [piperidine-4,4′-pyrido[3,4-b]indol]-2′(1′H,3′H,9′H)-yl)ethanone]	2610 nM
COc1ccc2c3c(n(C)c2c1)[C@@H](CO)N(CC1CCCCC1)CC31CCN(Cc2nccs2)CC1 [Compound 109, (S)-(2′-(cyclohexylmethyl)-7′-methoxy-9′-methyl-1-(thiazol-2-ylmethyl)-1′,2′,3′,9′-tetrahydrospiro [piperidine-4,4′-pyrido[3,4-b]indol]-1′-yl)methanol]	1030 nM
COc1ccc2c3c(n(C)c2c1)[C@H](CO)N(CC1CCOCC1)CC31CCN(Cc2nccs2)CC1 [Compound 112, (R)-(7′-methoxy-9′-methyl0-2′-((tetrahydro-2H-pyran-4-yl)methyl)-1-(thiazol-2-ylmethyl)-1′,2′,3′,9′-tetrahydrospiro [piperidine-4,4′-pyrido [3,4-b]indol]-1′-yl) methanol]	1100 nM
COc1ccc2c3c([nH]c2c1)[C@H](CO)N(S(=O)(=O)c1ccc(C)cc1)CC31CCN(C(=O)Nc2ccccc2F)CC1 [Compound 144, (R)-N-(2-fluorophenyl)-1′-(hydroxymethyl)-7′-methoxy-2′-tosyl-1′,2′,3′,9′-tetrahydrospiro [piperidine-4,4′-pyrido[3,4-b]indole]-1-carboxamide]	1080 nM
